Experimental data published in publication PMC8838408, “Antileishmanial Effects of Acetylene Acetogenins from Seeds of Porcelia macrocarpa (Warm.) R.E. Fries (Annonaceae) and Semisynthetic Derivatives” (Molecules, 2022).
Entries after “also recorded” stand apart in the source; their conditions may differ. Where two headings read alike, the source gives them in different places.

How the values were obtained:
[1] = Cytotoxicity against mammalian cells (MTT assay); assay type: cell-based; conditions: mouse, NCTC clone 929 cells, highest concentration 200 μM
Description: (§1) Macrophages were collected from the peritoneal cavity of female BALB/c mice by washing with RPMI-1640 without phenol red, supplemented with 10% FBS at 37 °C in a humidified atmosphere containing 5% CO2. NCTC (clone 929) cells were maintained in RPMI-1640 (without phenol red and supplemented with 10% FBS) at 37 °C in the same conditions of the peritoneal macrophages.
The 50% cytotoxic concentration (CC50) was determined in NCTC clone 929 cells. NCTC cells were seeded at 6 × 10^4 cells/well in 96-well microplates and incubated with serial dilutions of the tested compounds or standard drug (miltefosine) to the highest concentration of 200 μM for 48 h at 37 °C in a 5% CO2-humidified incubator. An MTT assay determined the viability of the cells at 570 nm. The selectivity index (SI) was determined considering the following equation: CC50 NCTC cells/IC50 parasites.
(§2) The data obtained represent the mean and standard deviation of duplicate samples from at least three independent assays. IC50 and CC50 values were calculated using sigmoid dose–response curves in Graph Pad Prism 5.0 software (GraphPad Software, San Diego, CA, USA).

[2] = tested on: intracellular amastigote forms of Leishmania (L.) infantum; assay: Activity against L. (L.) infantum intracellular amastigotes in infected peritoneal macrophages; assay type: cell-based; conditions: for IC50 L. (L.) infantum / IC50: 96 h; for IC50: read-out: IC50 L. (L.) infantum; for SI (selectivity index): CC50 NCTC cells/IC50 parasites
Description: L. (L.) infantum (MHOM/BR/1972/LD) was maintained through successive passages in golden hamsters up to 60–70 days post-infection. Amastigotes were harvested from spleens of infected hamsters by differential centrifugation.
as §1
The 50% inhibitory concentrations (IC50) against intracellular amastigotes for tested compounds were determined in infected macrophages. Peritoneal macrophages were obtained as described in the Section 3.6.3, and L. (L.) infantum amastigotes were obtained from spleens of infected hamsters by differential centrifugation. Peritoneal macrophages were seeded at 1 × 10^5 cells per well in Nunc™ 16-well slide chambers (Aldrich, St. Louis, MO, USA) for 24 h at 37 °C in a 5% CO2-humidified incubator. Next, amastigotes were isolated from a spleen of an infected hamster as described, counted, seeded at a 1:10 macrophages/amastigotes ratio, and incubated for 24 h. Non-internalized parasites were removed by washing twice with a culture medium. Then, the macrophages were incubated with compounds or standard drug (miltefosine) in a range of 100 to 0.78 μM for 96 h at 37 °C in a 5% CO2-humidified incubator, using miltefosine as a standard drug. At the end of the assay, the cells were fixed in methanol, stained with Giemsa, and observed under a digital light microscope (EVOS M5000, Thermo, Waltham, MA, USA) to determine the number of infected macrophages out of 400 cells.
as §2

[3] = intracellular amastigotes in BALB/c peritoneal macrophages, 100 to 0.78 μM, NA: non-active
[4] = Peritoneal macrophage, intracellular amastigotes in BALB/c peritoneal macrophages, 100 to 0.78 μM, NA: non-active

Row | IC50 [2, 4] [µM] | SMILES | CC50 at 48 h [1] [µM] | IC50 L. (L.) infantum [2, 3] | SI (selectivity index) [2] | IC50 ([2]; Peritoneal macrophage) [µM] | IC50 [2, 3] [µM]
1 |  | CCCCCCCCCCCCCCCCCCCCC1=C[C@@H](C)OC1=O [Compound 3b, 4R-Methyl-2-(n-eicosanil)but-2-enolide] | > 200 | lack of activity; also recorded: no activity |  |  | 
2 | > 100 | CCCCCCCCCCCCCCCCCCCCC1C(=O)OC(C)C1O [Compound 3, (2S,3R,4R)-3-Hydroxy-4-methyl-2-(n-eicosanil)butanolide] | > 200 | lack of activity; also recorded: no activity |  |  | 
3 | 29.9 ± 9.7 | C=CCCCCCCC#CCCCCCCCCCC[C@@H]1C(=O)O[C@H](C)[C@@H]1O [Compound 1, (2S,3R,4R)-3-hydroxy-4-methyl-2-(n-eicos-11′-yn-19′-enyl)butanolide] | > 200 |  | >6.7 |  | 
4 |  | C=CCCCCCCC#CCCCCCCCCCCC1=C[C@@H](C)OC1=O [Compound 1b, 4R-Methyl-2-(n-eicos-11′-yn-19′-enil)but-2-enolide] | > 200 |  | >8.6 | 23.1 ± 5.4 | 
5 | 17.8 ± 1.4 | CCCCCCCCCCCCCCCCOP(=O)([O-])OCC[N+](C)(C)C [Miltefosine, reference compound] | 116 ± 5.3 |  | 6.5 |  | 
6 |  | CCCCCCCCC#CCCCCCCCCCCC1=C[C@@H](C)OC1=O [Compound 2b, 4R-Methyl-2-(n-eicos-11′-ynil)but-2-enolide] | > 200 | no activity |  |  | 
7 |  | CCCCCCCCCCCCCCCCCCCCC1C(=O)OC(C)C1OC(C)=O [Compound 3a, (2S,3R,4R)-3-Acetoxy-4-methyl-2-(n-eicosanil)butanolide] | > 200 | lack of activity; also recorded: no activity |  |  | 
8 |  | CCCCCCCCC#CCCCCCCCCCC[C@@H]1C(=O)O[C@H](C)[C@@H]1OC(C)=O [Compound 2a, (2S,3R,4R)-3-Acetoxy-4-methyl-2-(n-eicos-11′-ynil)butanolide] | > 200 | no activity |  |  | 
9 | > 100 | CCCCCCCCC#CCCCCCCCCCC[C@@H]1C(=O)O[C@H](C)[C@@H]1O [Compound 2, (2S,3R,4R)-3-hydroxy-4-methyl-2-(n-eicos-11′-ynyl)butanolide] | > 200 | inactive |  |  | 

Row | SMILES | IC50 [2, 4] [µM] | CC50 at 48 h [1] [µM] | IC50 L. (L.) infantum [2, 3] | SI (selectivity index) [2] | IC50 ([2]; Peritoneal macrophage) [µM] | IC50 [2, 3] [µM]
10 | C=CCCCCCCC#CCCCCCCCCCC[C@@H]1C(=O)O[C@H](C)[C@@H]1OC(C)=O [Compound 1a, (2S,3R,4R)-3-Acetoxy-4-methyl-2-(n-eicos-11′-yn-19′-enil)butanolide] | 43.3 | > 200 |  | >4.6 |  | 43.4 ± 3.9
